Test results as given in PubChem BioAssay AID1963980 (Molecular Pharmacology Branch, DTP, NCI, 2024).

System: 475296-252-R-J1-PDC spheroid viability
Assay: Anticancer human tumor 475296-252-R-J1-PDC patient-derived rectal carcinoma cell line growth inhibition [PI3K]
Details: spheroids with HUVEC and MSC; for IC50: curve of first compound; for viability, T/C: stronger effect = lower value
Outline: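 Stroma-containing spheroids: tumor line, pooled-donor HUVEC, hMSC. Treatments: targeted agents with PI3K inhibitors. Dosing: clinically relevant, half-log spacing, 10 microM ceiling without known Cmax. Read-out: cell viability.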

[1] = second compound 0.0316 µM, first compound 0.0316 µM
[2] = second compound 0.0316 µM, first compound 0.1 µM
[3] = second compound 0.0316 µM, first compound 0.316 µM
[4] = second compound 0.0316 µM, first compound 1 µM
[5] = second compound 0.0316 µM, first compound 3.16 µM
[6] = second compound 0.0316 µM, first compound 10 µM
[7] = second compound 0.1 µM, first compound 0.0316 µM
[8] = second compound 0.1 µM, first compound 0.1 µM
[9] = second compound 0.1 µM, first compound 0.316 µM
[10] = second compound 0.1 µM, first compound 1 µM
[11] = second compound 0.1 µM, first compound 3.16 µM
[12] = second compound 0.1 µM, first compound 10 µM
[13] = second compound 0.316 µM, first compound 0.0316 µM
[14] = second compound 0.316 µM, first compound 0.1 µM
[15] = second compound 0.316 µM, first compound 0.316 µM
[16] = second compound 0.316 µM, first compound 1 µM
[17] = second compound 0.316 µM, first compound 3.16 µM
[18] = second compound 0.316 µM, first compound 10 µM
[19] = second compound 1 µM, first compound 0.0316 µM
[20] = second compound 1 µM, first compound 0.1 µM
[21] = second compound 1 µM, first compound 0.316 µM
[22] = second compound 1 µM, first compound 1 µM
[23] = second compound 1 µM, first compound 3.16 µM
[24] = second compound 1 µM, first compound 10 µM
[25] = second compound 3.16 µM, first compound 0.0316 µM
[26] = second compound 3.16 µM, first compound 0.1 µM
[27] = second compound 3.16 µM, first compound 0.316 µM
[28] = second compound 3.16 µM, first compound 1 µM
[29] = second compound 3.16 µM, first compound 3.16 µM
[30] = second compound 3.16 µM, first compound 10 µM
[31] = second compound 10 µM, first compound 0.0316 µM
[32] = second compound 10 µM, first compound 0.1 µM
[33] = second compound 10 µM, first compound 0.316 µM
[34] = second compound 10 µM, first compound 1 µM
[35] = second compound 10 µM, first compound 3.16 µM
[36] = second compound 10 µM, first compound 10 µM
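Also: spheroids exposed to agents for seven days before readout.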

## CC1(C)CCC(Nc2ncc(C(F)(F)F)c(-c3c[nH]c4c(P(C)(C)=O)c(C#N)ccc34)n2)CN1 (stereo unspecified) + COc1c(OCCCN2CCOCC2)ccc2c3n(c(=NC(=O)c4cnc(N)nc4)nc12)CCN3
Second compound 0.00316 µM
  IC50: > 10 µM
Second compound 0.01 µM
  IC50: > 10 µM
Second compound 0.0316 µM
  IC50: > 10 µM
Second compound 0.1 µM
  IC50: 7.77 µM
Second compound 0.316 µM
  IC50: 5.48 µM
Second compound 1 µM
  IC50: 1.4 µM
Second compound 0.00316 µM, first compound 0.0316 µM
  viability, T/C: 91.7%
Second compound 0.00316 µM, first compound 0.1 µM
  viability, T/C: 93.5%
Second compound 0.00316 µM, first compound 0.316 µM
  viability, T/C: 115%
Second compound 0.00316 µM, first compound 1 µM
  viability, T/C: 130%
Second compound 0.00316 µM, first compound 3.16 µM
  viability, T/C: 147%
Second compound 0.00316 µM, first compound 10 µM
  viability, T/C: 63.2%
Second compound 0.01 µM, first compound 0.0316 µM
  viability, T/C: 101%
Second compound 0.01 µM, first compound 0.1 µM
  viability, T/C: 96%
Second compound 0.01 µM, first compound 0.316 µM
  viability, T/C: 112%
Second compound 0.01 µM, first compound 1 µM
  viability, T/C: 119%
Second compound 0.01 µM, first compound 3.16 µM
  viability, T/C: 140%
Second compound 0.01 µM, first compound 10 µM
  viability, T/C: 52.2%
[1]
  viability, T/C: 85.3%
[2]
  viability, T/C: 86.7%
[3]
  viability, T/C: 95%
[4]
  viability, T/C: 103%
[5]
  viability, T/C: 125%
[6]
  viability, T/C: 56.1%
[7]
  viability, T/C: 79.9%
[8]
  viability, T/C: 85.4%
[9]
  viability, T/C: 91.7%
[10]
  viability, T/C: 82%
[11]
  viability, T/C: 98.5%
[12]
  viability, T/C: 39.4%
[13]
  viability, T/C: 69.1%
[14]
  viability, T/C: 76.8%
[15]
  viability, T/C: 72%
[16]
  viability, T/C: 78.1%
[17]
  viability, T/C: 74.3%
[18]
  viability, T/C: 23.7%
[19]
  viability, T/C: 57.4%
[20]
  viability, T/C: 50.5%
[21]
  viability, T/C: 49.8%
[22]
  viability, T/C: 54.9%
[23]
  viability, T/C: 44.2%
[24]
  viability, T/C: 9.59%

## C#Cc1c(F)ccc2cc(O)cc(-c3ncc4c(N5CC6CCC(C5)N6)nc(OCC56CCCN5CC(F)C6)nc4c3F)c12 (stereo unspecified) + Cc1nc(NC(=O)N2CCCC2C(N)=O)sc1-c1ccnc(C(C)(C)C(F)(F)F)c1
Second compound 0.0316 µM
  IC50: > 10 µM
Second compound 0.1 µM
  IC50: > 10 µM
Second compound 0.316 µM
  IC50: 8.41 µM
Second compound 1 µM
  IC50: 4.42 µM
Second compound 3.16 µM
  IC50: 0.689 µM
Second compound 10 µM
  IC50: 0.267 µM
[1]
  viability, T/C: 88.4%
[2]
  viability, T/C: 84.1%
[3]
  viability, T/C: 88.5%
[4]
  viability, T/C: 74.2%
[5]
  viability, T/C: 67.9%
[6]
  viability, T/C: 66%
[7]
  viability, T/C: 87.1%
[8]
  viability, T/C: 78.9%
[9]
  viability, T/C: 88.1%
[10]
  viability, T/C: 64.6%
[11]
  viability, T/C: 66.9%
[12]
  viability, T/C: 59%
[13]
  viability, T/C: 80.2%
[14]
  viability, T/C: 84.7%
[15]
  viability, T/C: 73.6%
[16]
  viability, T/C: 71.7%
[17]
  viability, T/C: 61.1%
[18]
  viability, T/C: 48%
[19]
  viability, T/C: 78.4%
[20]
  viability, T/C: 82.8%
[21]
  viability, T/C: 72%
[22]
  viability, T/C: 65.5%
[23]
  viability, T/C: 60.3%
[24]
  viability, T/C: 32.7%
[25]
  viability, T/C: 89.1%
[26]
  viability, T/C: 75.3%
[27]
  viability, T/C: 65.1%
[28]
  viability, T/C: 44.8%
[29]
  viability, T/C: 21.7%
[30]
  viability, T/C: 10.4%
[31]
  viability, T/C: 73.4%
[32]
  viability, T/C: 70.2%
[33]
  viability, T/C: 46.6%
[34]
  viability, T/C: 9.2%
[35]
  viability, T/C: 5.28%
[36]
  viability, T/C: 3.54%

## CC(C)NCC(C(=O)N1CCN(c2ncnc3c2C(C)CC3O)CC1)c1ccc(Cl)cc1 (stereo unspecified) + CC(Nc1ncnc2nc[nH]c12)c1cc2cccc(Cl)c2c(=O)n1-c1ccccc1
Second compound 0.0316 µM
  IC50: > 10 µM
Second compound 0.1 µM
  IC50: > 10 µM
Second compound 0.316 µM
  IC50: > 10 µM
Second compound 1 µM
  IC50: > 10 µM
Second compound 3.16 µM
  IC50: > 10 µM
Second compound 10 µM
  IC50: > 10 µM
[1]
  viability, T/C: 89.7%
[2]
  viability, T/C: 104%
[3]
  viability, T/C: 80.3%
[4]
  viability, T/C: 77.3%
[5]
  viability, T/C: 56.2%
[6]
  viability, T/C: 65.5%
[7]
  viability, T/C: 101%
[8]
  viability, T/C: 93.2%
[9]
  viability, T/C: 85.2%
[10]
  viability, T/C: 73.3%
[11]
  viability, T/C: 68.8%
[12]
  viability, T/C: 63.2%
[13]
  viability, T/C: 117%
[14]
  viability, T/C: 96.4%
[15]
  viability, T/C: 89.1%
[16]
  viability, T/C: 76%
[17]
  viability, T/C: 59.9%
[18]
  viability, T/C: 66.3%
[19]
  viability, T/C: 100%
[20]
  viability, T/C: 103%
[21]
  viability, T/C: 76%
[22]
  viability, T/C: 61.8%
[23]
  viability, T/C: 54.4%
[24]
  viability, T/C: 65.5%
[25]
  viability, T/C: 93.1%
[26]
  viability, T/C: 85.5%
[27]
  viability, T/C: 82.5%
[28]
  viability, T/C: 76.1%
[29]
  viability, T/C: 67.9%
[30]
  viability, T/C: 50.7%
[31]
  viability, T/C: 98%
[32]
  viability, T/C: 84.1%
[33]
  viability, T/C: 94.7%
[34]
  viability, T/C: 67.1%
[35]
  viability, T/C: 59.6%
[36]
  viability, T/C: 56%
